The values that follow come from patent US9115137B2, “2,3,4,5-tetrahydro-1H-pyrido[4,3-B]indole compounds and methods of use thereof” (priority 2008, dated 2015).

In assay [1] the target is T1, human recombinant dopamine D2L receptor (Homo sapiens, UniProt P14416).
T1 construct: expressed in transfected cells; host or cells: CHO cells
Description: Dopamine D2L radioligand binding ([3H]Spiperone). The note with it: compound at 1 μM; CHO cells; read-out: Dopamine (1 μM) D2L, percent inhibition of specific binding. On the procedure:
To evaluate in radioligand binding assays the activity of compounds of the invention, human recombinant dopamine D2L receptor expressed in Chinese hamster ovary (CHO) cells (Grandy, D. K. et al. Proc. Natl. Acad. Sci. USA. 86:9762, 1989; Hayes, G. et al., Mol. Endocrinol. 6:920, 1992) in a modified Tris-HCl buffer (50 mM Tris-HCl, pH 7.4, 1.4 mM Ascorbic Acid, 0.001% BSA, 150 mM NaCl) was used. Compounds of the invention were incubated with 0.16 nM [^3H]Spiperone for 120 minutes at 25° C. Non-specific binding was estimated in the presence of 10 μM Haloperidol. Receptor proteins were filtered and washed, the filters were then counted to determine [^3H]Spiperone specifically bound. Compounds were screened at 1 μM or lower, using 1% DMSO as vehicle. Biochemical assay results are presented as the percent inhibition of specific binding in Table 6.

The target of assay [2] is T2, human recombinant serotonin (5-Hydroxytryptamine) 5-HT2A receptor (Homo sapiens, UniProt P28223).
T2 construct: expressed in transfected cells; host or cells: CHO-K1 cells
T2 sequence (P28223 whole entry): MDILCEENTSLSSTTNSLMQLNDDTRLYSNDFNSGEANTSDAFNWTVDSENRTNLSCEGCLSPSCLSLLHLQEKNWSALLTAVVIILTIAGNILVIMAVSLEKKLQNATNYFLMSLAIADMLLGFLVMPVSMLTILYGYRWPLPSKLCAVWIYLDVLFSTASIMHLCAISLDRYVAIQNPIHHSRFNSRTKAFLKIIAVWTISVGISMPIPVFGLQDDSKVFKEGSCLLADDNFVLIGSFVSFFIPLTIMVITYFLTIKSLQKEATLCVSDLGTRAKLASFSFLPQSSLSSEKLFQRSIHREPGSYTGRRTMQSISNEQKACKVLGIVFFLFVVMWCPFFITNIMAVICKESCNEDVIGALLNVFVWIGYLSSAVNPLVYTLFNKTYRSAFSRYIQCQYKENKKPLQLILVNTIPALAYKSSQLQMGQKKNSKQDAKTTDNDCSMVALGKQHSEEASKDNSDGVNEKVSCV
The assay can be described thus: Serotonin 5-HT2A radioligand binding ([3H]Ketanserin). The note with it: compound at 1 μM; CHO-K1 cells; read-out: Serotonin (1 μM) 5-HT2A, percent inhibition of specific binding. Here is the method: To evaluate in radioligand binding assays the activity of compounds of the invention, human recombinant serotonin (5-Hydroxytryptamine) 5-HT2A receptor expressed in Chinese hamster ovary (CHO-K1) cells (Bonhaus, D. W. et al. Br. J. Pharmacol. 115:622, 1995; Saucier, C. and Albert, P. R., J. Neurochem. 68:1998, 1997) in a 50 mM Tris-HCl buffer, pH 7.4, was used. Compounds of the invention were incubated with 0.5 nM [^3H]Ketanserin for 60 minutes at 25° C. Non-specific binding was estimated in the presence of 1 μM Mianserin. Receptor proteins were filtered and washed, the filters were then counted to determine [^3H] Ketanserin specifically bound. Compounds were screened at 1 μM or lower, using 1% DMSO as vehicle. Biochemical assay results are presented as the percent inhibition of specific binding in Table 7.

The test system of assay [3] is rat central imidazoline I2 receptor. Description: Central imidazoline I2 radioligand binding ([3H]Idazoxan). The note with it: compound at 1 μM; Wistar Rat cerebral cortex. Here is the method: To evaluate in radioligand binding assays the activity of compounds of the invention, rat central imidazoline I2 receptor obtained from Wistar Rat cerebral cortex (Brown, C. M. et al., Br. J. Pharmacol. 99:803, 1990) in a modified Tris-HCl buffer (50 mM Tris-HCl buffer, pH 7.4, 0.5 mM EDTA) was used. Compounds of the invention were incubated with 2 nM [^3H]Idazoxan for 30 minutes at 25° C. Non-specific binding was estimated in the presence of 1 μM Idazoxan. Receptor proteins were filtered and washed, the filters were then counted to determine [^3H]Idazoxan specifically bound. Compounds were screened at 1 μM or lower, using 1% DMSO as vehicle. Compounds of the invention were tested in this biochemical assay and percent inhibition of specific binding was determined. Biochemical assay results are presented as the percent inhibition of specific binding in Table 5.

T1 sequence (P14416 whole entry): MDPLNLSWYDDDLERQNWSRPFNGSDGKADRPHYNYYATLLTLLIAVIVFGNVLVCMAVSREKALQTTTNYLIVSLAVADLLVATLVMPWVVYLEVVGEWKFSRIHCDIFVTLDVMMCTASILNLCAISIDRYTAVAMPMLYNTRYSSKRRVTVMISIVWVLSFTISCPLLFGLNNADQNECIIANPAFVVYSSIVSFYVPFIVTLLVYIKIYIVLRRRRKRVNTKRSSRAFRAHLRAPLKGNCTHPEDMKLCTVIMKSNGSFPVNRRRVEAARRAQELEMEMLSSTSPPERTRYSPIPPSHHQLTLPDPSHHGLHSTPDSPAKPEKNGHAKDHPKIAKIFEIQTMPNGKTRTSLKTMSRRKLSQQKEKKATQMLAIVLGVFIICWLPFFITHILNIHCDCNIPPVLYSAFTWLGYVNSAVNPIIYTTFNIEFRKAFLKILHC

On to `CN1CCc2c(c3cc(Cl)ccc3n2CCC(N)=O)C1` [Compound 67, 3-(8-chloro-1,2,3,4-tetrahydro-2-methylpyrido[4,3-b]indol-5-yl)propanamide], for which the inhibition (usually the relative decrease from the control value, in per cent) at 1 µM was -1% in assay [1] and 55% in assay [2].

As for `Cc1ccc2c(c1)c1c(n2CCO)CCN(C)C1` [CD90, 2-(2,8-dimethyl-3,4-dihydro-1H-pyrido[4,3-b]indol-5(2H)-yl)ethanol], the values for the inhibition at 1 µM in assay [1] and in assay [2] were -8% and 58%, respectively.

For the compound `CN1CCc2c(c3cc(Cl)ccc3n2CC(=O)OC(C)(C)C)C1` [Compound 12, tert-butyl 2-(8-chloro-1,2,3,4-tetrahydro-2-methylpyrido[4,3-b]indol-5-yl)acetate], the inhibition at 1 µM in assay [1] came to 23%; in assay [2], 81%.

Consider `CC(C)OC(=O)CCn1c2c(c3cc(Cl)ccc31)CN(C)CC2` [Compound 17, isopropyl 3-(8-chloro-1,2,3,4-tetrahydro-2-methylpyrido[4,3-b]indol-5-yl)propanoate], for which the inhibition at 1 µM turned out to be 13% in assay [1] and 84% in assay [2].

As to `CCOC(=O)Cn1c2c(c3cc(C)ccc31)CN(C)CC2` [CD57, ethyl 2-(1,2,3,4-tetrahydro-2,8-dimethylpyrido[4,3-b]indol-5-yl)acetate], the inhibition at 1 µM in assay [1] was 12%; in assay [2], 92%.

Consider `Cc1ccc2c(c1)c1c(n2CCNC(=O)c2ccncc2C)CCN(C)C1` [Compound 69, N-(2-(1,2,3,4-tetrahydro-2,8-dimethylpyrido[4,3-b]indol-5-yl)ethyl)-3-methylpyridine-4-carboxamide], for which the inhibition at 1 µM in assay [1] worked out at 4%; in assay [2], 30%.

For `CN1CCc2c(c3cc(Cl)ccc3n2CC(=O)NC2CCCC2)C1` [Compound 27, 2-(8-chloro-1,2,3,4-tetrahydro-2-methylpyrido[4,3-b]indol-5-yl)-N-cyclopentylacetamide], the “Imidazoline I2 Central (1 μM), percent inhibition of specific binding” value in assay [3] worked out at 8%. For the same compound, the inhibition at 1 µM in assay [1] was -2%.

Take `CN1CCc2c(c3cc(Cl)ccc3n2CC(=O)OC2CCCC2)C1` [Compound 15]: the “Imidazoline I2 Central (1 μM), percent inhibition of specific binding” value in assay [3] came out at 23%. The inhibition at 1 µM in assay [1] turned out to be 26%.

For `Cc1ccc2c(c1)c1c(n2CCC(=O)NC(C)C)CCN(C)C1` [Compound 53], the values for the inhibition at 1 µM in assay [1] and in assay [2] were -2% and 39%, respectively.

Turning to `Cc1ccc2c(c1)c1c(n2CCC(=O)Nc2ccc(F)cc2)CCN(C)C1` [Compound 47, N-(4-fluorophenyl)-3-(1,2,3,4-tetrahydro-2,8-dimethylpyrido[4,3-b]indol-5-yl)propanamide], in assay [3], the “Imidazoline I2 Central (1 μM), percent inhibition of specific binding” value turned out to be 47%. In addition, the inhibition at 1 µM in assay [1] is -3%.

For `CN1CCc2c(c3cc(Cl)ccc3n2CCC(=O)OC2CCCC2)C1` [Compound 21, cyclopentyl 3-(8-chloro-1,2,3,4-tetrahydro-2-methylpyrido[4,3-b]indol-5-yl)propanoate], the inhibition at 1 µM in assay [1] was found to be 35%; in assay [2], 98%.

With `CN1CCc2c(c3cc(Cl)ccc3n2CC(=O)OCc2ccccc2)C1` [Compound 13, benzyl 2-(8-chloro-1,2,3,4-tetrahydro-2-methylpyrido[4,3-b]indol-5-yl)acetate], the “Imidazoline I2 Central (1 μM), percent inhibition of specific binding” value in assay [3] is given as 16%. For the same compound, the inhibition at 1 µM in assay [1] is 38%.

Regarding `CN1CCc2c(c3cc(Cl)ccc3n2CC(=O)NC2CCCCC2)C1` [Compound 60, 2-(8-chloro-1,2,3,4-tetrahydro-2-methylpyrido[4,3-b]indol-5-yl)-N-cyclohexylacetamide], the “Imidazoline I2 Central (1 μM), percent inhibition of specific binding” value in assay [3] stood at 6%. Besides, the inhibition at 1 µM in assay [1] came to 18%.

Consider `Cc1ccc2c(c1)c1c(n2CCNC(=O)c2ccc(F)cc2)CCN(C)C1` [Compound 66, 4-fluoro-N-(2-(1,2,3,4-tetrahydro-2,8-dimethylpyrido[4,3-b]indol-5-yl)ethyl)benzamide], for which the inhibition at 1 µM in assay [1] is -2%; in assay [2], 98%.

As to `CN1CCc2c(c3cc(Cl)ccc3n2CCC(=O)OCC2CCCCC2)C1` [Compound 20, cyclohexylmethyl 3-(8-chloro-1,2,3,4-tetrahydro-2-methylpyrido[4,3-b]indol-5-yl)propanoate], the inhibition at 1 µM is 19% in assay [1] and 102% in assay [2].

For `CN1CCc2c(c3cc(Cl)ccc3n2CCC(=O)O)C1` [CD55, 3-(8-chloro-1,2,3,4-tetrahydro-2-methylpyrido[4,3-b]indol-5-yl)propanoic acid], the “Imidazoline I2 Central (1 μM), percent inhibition of specific binding” value in assay [3] is given as 3%. Moreover, the inhibition at 1 µM in assay [1] is 3%.

For `CC(C)OC(=O)Cn1c2c(c3cc(Cl)ccc31)CN(C)CC2` [Compound 11, isopropyl 2-(8-chloro-1,2,3,4-tetrahydro-2-methylpyrido[4,3-b]indol-5-yl)acetate], in assay [3], the “Imidazoline I2 Central (1 μM), percent inhibition of specific binding” value amounted to 5%. Moreover, the inhibition at 1 µM in assay [1] was 10%.

For the compound `Cc1ccc2c(c1)c1c(n2CCNC(=O)C(C)C)CCN(C)C1` [Compound 61, N-(2-(1,2,3,4-tetrahydro-2,8-dimethylpyrido[4,3-b]indol-5-yl)ethyl)isobutyramide], the “Imidazoline I2 Central (1 μM), percent inhibition of specific binding” value in assay [3] amounted to 40%. Further, the inhibition at 1 µM in assay [1] is -3%.

As to `CCOC(=O)CCn1c2c(c3cc(Cl)ccc31)CN(C)CC2` [CD17, ethyl 3-(8-chloro-1,2,3,4-tetrahydro-2-methylpyrido[4,3-b]indol-5-yl)propanoate], the “Imidazoline I2 Central (1 μM), percent inhibition of specific binding” value in assay [3] is 62%. Also, the inhibition at 1 µM in assay [1] stood at 22%.

`Cc1ccc2c(c1)c1c(n2CC(=O)O)CCN(C)C1` [CD58, 2-(1,2,3,4-tetrahydro-2,8-dimethylpyrido[4,3-b]indol-5-yl)acetic acid]: the “Imidazoline I2 Central (1 μM), percent inhibition of specific binding” value in assay [3] is on record as 3%. In assay [1], the inhibition at 1 µM was 2%.

As for `CN1CCc2c(c3cc(Cl)ccc3n2CCC(=O)NC2CCCC2)C1` [Compound 31, 3-(8-chloro-1,2,3,4-tetrahydro-2-methylpyrido[4,3-b]indol-5-yl)-N-cyclopentylpropanamide], the “Imidazoline I2 Central (1 μM), percent inhibition of specific binding” value in assay [3] was 33%. The inhibition at 1 µM in assay [1] turned out to be 9%.

As for `CN1CCc2c(c3cc(Cl)ccc3n2CC(=O)O)C1` [CD46, 2-(8-chloro-1,2,3,4-tetrahydro-2-methylpyrido[4,3-b]indol-5-yl)acetic acid], the “Imidazoline I2 Central (1 μM), percent inhibition of specific binding” value in assay [3] was found to be 28%. For the same compound, the inhibition at 1 µM in assay [1] is 3%.

On to `Cc1ccc2c(c1)c1c(n2CCN)CCN(C)C1` [CD62, 2-(1,2,3,4-tetrahydro-2,8-dimethylpyrido[4,3-b]indol-5-yl)ethanamine], for which the “Imidazoline I2 Central (1 μM), percent inhibition of specific binding” value in assay [3] was determined as 13%. Also, the inhibition at 1 µM in assay [1] turned out to be 26%.

As for `Cc1ccc2c(c1)c1c(n2CCNC(=O)c2ccncc2)CCN(C)C1` [Compound 50, N-(2-(1,2,3,4-tetrahydro-2,8-dimethylpyrido[4,3-b]indol-5-yl)ethyl)isonicotinamide], the “Imidazoline I2 Central (1 μM), percent inhibition of specific binding” value in assay [3] was 24%. Further, the inhibition at 1 µM in assay [1] worked out at 7%.

`CN1CCc2c(c3cc(Cl)ccc3n2CC(N)=O)C1` [Compound 45, 2-(8-chloro-1,2,3,4-tetrahydro-2-methylpyrido[4,3-b]indol-5-yl)acetamide]: the “Imidazoline I2 Central (1 μM), percent inhibition of specific binding” value in assay [3] is reported as 24%. Besides, the inhibition at 1 µM in assay [1] was found to be 7%.

Take `Cc1ccc2c(c1)c1c(n2CC(=O)NC(C)C)CCN(C)C1` [Compound 23, 2-(1,2,3,4-tetrahydro-2,8-dimethylpyrido[4,3-b]indol-5-yl)-N-isopropylacetamide]: the “Imidazoline I2 Central (1 μM), percent inhibition of specific binding” value in assay [3] is on record as 1%. Also, the inhibition at 1 µM in assay [1] came to 5%.

On to `Cc1ccc2c(c1)c1c(n2CCNC(=O)C2CCCCC2)CCN(C)C1` [Compound 62, N-(2-(1,2,3,4-tetrahydro-2,8-dimethylpyrido[4,3-b]indol-5-yl)ethyl)cyclohexanecarboxamide], for which the “Imidazoline I2 Central (1 μM), percent inhibition of specific binding” value in assay [3] is 42%. Moreover, the inhibition at 1 µM in assay [1] is 5%.
